Data taken from patent US20080293727A1, “Novel sulfonamide inhibitors of aspartyl protease” (priority 1992, published 2008).

Biological target: HIV-1 protease (Human immunodeficiency virus type 1 group M subtype B, UniProt P04585)
Test: Inhibition constants against HIV-1 protease (method of Pennington et al.)
Type: biochemical
Details: HIV-1 protease; read-out: Ki value
Description: We measured the inhibition constants of the compounds listed in Table VII against HIV-1 protease using the above-cited method of Pennington et al.

SMILES | Ki
O=C(N[C@@H](Cc1ccccc1)[C@H](O)CN(CC1CCCC1)S(=O)(=O)c1ccc([N+](=O)[O-])cc1)O[C@H]1CCOC1 [Compound 170, N-Cyclopentylmethyl-N-((2 syn,3S)-2-hydroxy-4-phenyl-3-((S)-tetrahydrofuran-3-yloxycarbonylamino)-butyl)-4-nitro-benzensulfonamide] | 0.2 nM
CC(C)CN(C[C@@H](O)[C@H](Cc1ccccc1)NC(=O)O[C@@H]1CCOC1)S(=O)(=O)c1ccc(F)cc1 [Compound 93, 4-Fluoro-N-((2 syn,3S)-2-hydroxy-4-phenyl-3-((R)-tetrahydrofuran-3-yloxycarbonylamino)-butyl)-N-isobutyl-benzenesulfonamide] | 0.8 nM
CC(=O)Nc1ccc(S(=O)(=O)N(CC(C)C)C[C@@H](O)[C@H](Cc2ccccc2)NC(=O)[C@H](CC(N)=O)NC(=O)c2ccc3ccccc3n2)cc1 [Compound 17, (S)-N-1-(1-(S)-Benzyl-3-((4-acetylamino-benzenesulfonyl)-isobutyl-amino)-2-(syn)-hydroxy-propyl)-2-((quinoline-2-carbonyl)-amino)-succinamide] | < 0.1 nM
CC(=O)Nc1cc(S(=O)(=O)N(CC(C)C)C[C@@H](O)[C@H](Cc2ccccc2)NC(=O)c2cc(C(C)(C)C)nn2Cc2ccccc2)ccc1F [Compound 55] | 430 nM
CC(C)CN(C[C@@H](O)[C@H](Cc1ccccc1)NC(=O)O[C@H]1CCOC1)S(=O)(=O)c1ccc(-c2ccon2)s1 [Compound 145, 5-Isoxazol-3-yl-thiophene-2-sulfonic acid ((2 syn,3S)-2-hydroxy-4-phenyl-3-((S)-tetrahydrofuran-3-yloxycarbonylamino)-butyl)-isobutyl-amide] | 1.4 nM
CCOC(=O)N[C@@H](Cc1ccccc1)[C@H](O)CN(CC(C)C)S(=O)(=O)c1ccc(F)cc1 [Compound 121] | 2 nM
COC(=O)N[C@@H](Cc1ccccc1)[C@H](O)CN(CC(C)C)S(=O)(=O)c1ccc(Cl)c(Cl)c1 [Compound 103] | 4.5 nM
CC(C)CN(C[C@@H](O)[C@H](Cc1ccccc1)NC(=O)O[C@H]1CCOC1)S(=O)(=O)c1ccc(F)cc1 [Compound 35, 4-Fluoro-N-((2 syn,3S)-2-hydroxy-4-phenyl-3-((S)-tetrahydrofuran-3-yloxycarbonylamino)-butyl)-N-isobutyl-benzenesulfonamide] | 4 nM
CN(C[C@@H](O)[C@H](Cc1ccccc1)NC(=O)OC(C)(C)C)S(=O)(=O)c1ccc(Cl)c(Cl)c1 [Compound 126] | 310 nM
COc1ccc(OC)c(S(=O)(=O)N[C@@H](Cc2ccccc2)[C@H](O)CN(CC(C)C)S(=O)(=O)c2ccc(F)c(NC(C)=O)c2)c1 [Compound 73] | 140 nM
CC(C)CN(C[C@@H](O)[C@H](Cc1ccccc1)NC(=O)OCc1ccccc1)S(=O)(=O)c1ccc(F)cc1 [Compound 38] | 1.5 nM
CC(=O)Nc1ccc(S(=O)(=O)N(Cc2ccco2)C[C@@H](O)[C@H](Cc2ccccc2)NC(=O)O[C@H]2CCOC2)cc1 [Compound 137] | 26 nM
CC(C)CN(C[C@@H](O)[C@H](Cc1ccccc1)NC(=O)O[C@H]1CCOC1)S(=O)(=O)c1ccc(O)cc1 [Compound 175] | 0.1 nM
CCOC(=O)N[C@@H](Cc1ccccc1)[C@H](O)CN(CC(C)C)S(=O)(=O)c1ccc(NC(C)=O)cc1 [Compound 120] | 11 nM
COc1ccc(S(=O)(=O)N(C[C@@H](O)[C@H](Cc2ccccc2)NC(=O)O[C@H]2CCOC2)CC(C)(C)CO)cc1 [Compound 1009] | 20 nM
C=CCOC(=O)N[C@@H](Cc1ccccc1)[C@H](O)CN(CC1CCCC1)S(=O)(=O)c1ccc(OC)cc1 [Compound 141, N-((3-allyloxycarbonylamino)-(2 syn,3S)-2-hydroxy-4-phenyl-butyl)-N-cyclopentylmethyl-4-methoxy-benzenesulfonamide] | 0.1 nM
COc1ccc(S(=O)(=O)N(CC2CCCC2)CC(O)C(Cc2ccccc2)NC(=O)OC2CCNC2)cc1 (centres unmarked) [Compound 185] | 3.5 nM
